The source of these data is publication PMC9804781, “Identification of a Novel Pseudo‐Natural Product Type IV IDO1 Inhibitor Chemotype” (Angewandte Chemie (International Ed. in English), 2022).

One experiment concerns the target T1, rhIDO1 (holo-IDO1) (Homo sapiens, UniProt P14902).
T1 construct: His; made in house; host or cells: E. coli
As to the kind of experiment: nanoDSF thermal denaturation of IDO1. The experiment is classed as binding. On the procedure:
11 µM rhIDO1 was incubated with compounds at indicated concentrations for 60 min at 37°C in 50 mM potassium phosphate buffer (16.9 mM K2HPO4, 33.1 mM, KH2PO4, pH 6.5). The thermal protein stability from 20°C to 90°C (1°C/min) was measured by means of the intrinsic tryptophan/tyrosine fluorescence using the Prometheus™ NT.48 (NanoTemper® Technologies, DE). Melting scans, first derivatives of melting scans and melting temperatures were analyzed using PR.ThermControl software (NanoTemper® Technologies, DE). Binding affinities were determined by plotting the melting temperature against the ligand concentration and fitting with a single site ligand binding function using GraphPad Prism 9.0 (GraphPad Software, Inc, US). The isothermal analysis of the nanoDSF data was performed with FoldAffinity[1] with an assumed heat capacity change ΔCp of zero. […]

In another experiment the target is IDO1 (Homo sapiens, UniProt P14902). As to the kind of experiment: Kyn assay in IDO1-HEK293T cells (CMV promoter). Type of experiment: cell-based. Also noted: host or cells: HEK293T. As to conditions: absence of IFN-γ; L-Trp, 24 h; p-DMAB. As to the method: page 80: temperature and centrifuged for 10 min at 1800 x g. Afterwards, an equal volume of freshly prepared 2% (w/v) p-DMAB in glacial acetic acid (Ehrlich reagent) was added prior to measuring the absorbance at 492 nm and 650 nm on the Spark® Multimode Microplate Reader (Tecan, AT). To determine the Kyn levels, the absorbance of the Kyn-p-DMAB adduct […] was subtracted by the background absorbance A650 and normalized to the DMSO control. Data analysis was performed using a non-linear regression curve fit and GraphPad Prism 9.0 (GraphPad Software, Inc, US) to generate dose-response curves and obtain IC50 values. […] Afterwards, an equal volume of freshly prepared 2% (w/v) p-DMAB in glacial acetic acid (Ehrlich reagent) was added prior to measuring the absorbance at 492 nm and 650 nm on the Spark® Multimode Microplate Reader (Tecan, AT). To determine the Kyn levels, the absorbance of the Kyn-p-DMAB adduct […] was subtracted by the background absorbance A650 and normalized to the DMSO control. […] Afterwards, an equal volume of freshly prepared 2% (w/v) p-DMAB in glacial acetic acid (Ehrlich reagent) was added prior to measuring absorbance at 492 nm and 650 nm on the Spark® Multimode Microplate Reader (Tecan, AT). To determine the Kyn levels, the absorbance of the Kyn-p-DMAB adduct […] was subtracted by the background absorbance A650 and normalized to the DMSO control. […]

Where “and” joins values, the source holds several entries; their conditions need not be identical. Equal entries are not always repeated. Where two headings read alike, the source gives them in different places.

T1 sequence (P14902 whole entry): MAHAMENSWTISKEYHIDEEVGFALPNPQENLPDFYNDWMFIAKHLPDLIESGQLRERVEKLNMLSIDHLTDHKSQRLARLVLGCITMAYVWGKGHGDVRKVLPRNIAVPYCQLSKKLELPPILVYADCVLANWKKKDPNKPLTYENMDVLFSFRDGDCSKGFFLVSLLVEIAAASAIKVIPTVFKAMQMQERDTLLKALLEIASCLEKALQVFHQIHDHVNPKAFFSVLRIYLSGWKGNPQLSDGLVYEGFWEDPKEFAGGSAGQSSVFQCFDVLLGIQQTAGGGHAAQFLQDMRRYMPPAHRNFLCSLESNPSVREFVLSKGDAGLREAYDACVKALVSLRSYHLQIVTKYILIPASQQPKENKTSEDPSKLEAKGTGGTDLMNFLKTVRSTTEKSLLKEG
Chain of IDO1 (P14902 whole entry): as above

In the case of `CCOC(=O)C1=CC[C@](C(=O)OC)(c2cc3ccccc3n2C)N(S(=O)(=O)c2ccc(C)cc2)[C@@H]1C(=O)OC(C)(C)C` [Compound 3d], the Kd on rhIDO1 (holo-IDO1) (48 °C, FoldAffinity, first replicate, read-out: KD, 48°C (isothermal analysis, single replicate)) was 11.6 nM; on rhIDO1 (holo-IDO1) (49 °C, FoldAffinity, read-out: KD, 49°C (isothermal analysis, single replicates)), 24.7 nM and 26 nM; on rhIDO1 (holo-IDO1) (50 °C, FoldAffinity, read-out: KD, 50°C (isothermal analysis, single replicates)), 48.4 nM and 34.7 nM and 24.8 nM; at rhIDO1 (holo-IDO1) (51 °C, FoldAffinity, read-out: KD, 51°C (isothermal analysis, single replicates)), 54.4 nM and 41.3 nM and 33.6 nM; on rhIDO1 (holo-IDO1) (at 49 °C, read-out: KD (isothermal analysis of nanoDSF data)) it was 20.7 ± 0.01 nM; at rhIDO1 (holo-IDO1) (from Tm vs concentration, mean±SD, n=3, read-out: apparent dissociation constant KD,app), 1100 nM and 1090 nM. In addition, the “shift of melting temperature Tm (nanoDSF)” value at rhIDO1 (holo-IDO1) (holo-IDO1, 60 min at 37 °C) came out at 7.7±0.3 °C. Further, at rhIDO1 (holo-IDO1) (holo-IDO1 treated with compound, DMSO 45.7±0.2 °C), the “melting temperature Tm of IDO1 with compound” value was 53.5±0.2 °C. On IDO1, the “Kyn production in HEK293T cells transiently expressing IDO1” value is recorded as “inhibited Kyn production”.
